What was measured:
PARP7 = biological target: T1, PARP7 (Homo sapiens, UniProt Q7Z3E1); experiment: PARP7 TR-FRET assay (binding, displacement of biotinylated Probe A); details: 6 nM PARP7, 2 nM Probe A, 25° C., 30 min
T1 sequence (Q7Z3E1 1-657): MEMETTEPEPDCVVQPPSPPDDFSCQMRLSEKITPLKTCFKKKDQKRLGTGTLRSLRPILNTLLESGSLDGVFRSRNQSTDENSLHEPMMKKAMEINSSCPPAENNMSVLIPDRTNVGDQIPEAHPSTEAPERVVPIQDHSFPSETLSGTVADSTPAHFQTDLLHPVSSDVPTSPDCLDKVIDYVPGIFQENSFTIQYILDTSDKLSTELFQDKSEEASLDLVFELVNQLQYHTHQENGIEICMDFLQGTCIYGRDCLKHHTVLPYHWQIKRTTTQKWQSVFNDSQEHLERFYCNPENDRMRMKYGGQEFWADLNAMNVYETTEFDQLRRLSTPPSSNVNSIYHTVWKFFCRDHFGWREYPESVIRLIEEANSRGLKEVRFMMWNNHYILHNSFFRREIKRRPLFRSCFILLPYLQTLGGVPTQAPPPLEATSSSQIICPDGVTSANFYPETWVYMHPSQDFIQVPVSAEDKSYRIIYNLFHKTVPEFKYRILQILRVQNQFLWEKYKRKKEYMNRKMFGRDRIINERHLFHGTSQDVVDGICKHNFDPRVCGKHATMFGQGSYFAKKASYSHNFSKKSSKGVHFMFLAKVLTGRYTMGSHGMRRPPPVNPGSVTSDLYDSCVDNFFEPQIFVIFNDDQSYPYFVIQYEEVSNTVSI
Method in brief: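 His-tagged PARP7 at 6 nM was preincubated with compound and 2 nM biotinylated Probe A for 30 min at 25° C (HEPES pH 8.0, NaCl, BSA, DTT, Tween20). Europium-streptavidin/ULight-anti-His FRET was read as the 665/615 nm ratio after a further 30 min. IC50 was fitted from % inhibition normalised to vehicle and blank.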

NCI-H1373 cells = experiment: Inhibition of cancer cell growth in NCI-H1373 cells (Cell-titer Glo, 6 days); format: cell-based; details: Homo sapiens, NCI-H1373, 144 h, read-out: H1373 Cell Proliferation IC50
Description: Biological Assay Example B: Inhibition of cancer cell growth in NCI-H1373 cells by PARP7 inhibitors
NCI-H1373 cells were cultured in RPMI 1640 medium supplemented with 10% fetal bovine serum, 100 U/mL penicillin and 100 ug/mL streptomycin in a 37° C., 5% CO2 incubator. Fifteen hundred cells were seeded into each well of 96-well plate in RPMI1640 medium containing 10% fetal bovine serum and incubated overnight. Serial diluted compounds for each well were added at a final DMSO concentration of 0.5% and a day zero plate was collected for analysis. Compounds were incubated with the cells for 6 days. Cell growth was assessed using Cell-titer Glo reagent (Promega #G^7572). The luminescence signal was collected on Tecan Spark plate reader. Cell growth is determined by correcting for the cell count on day zero. Inhibition rate is calculated with the formula of % inhibition=100*(DMSO control-compounds)/(DMSO control-Blank). Cell growth inhibition IC50 is calculated with the equation of Y-Bottom+ (Top-Bottom)/(1+10^((LogIC50−X) *Hill Slope)).

Compound	IC50 (PARP7)	IC50 (NCI-H1373 cells)
O=C(COC1CCOc2c1n[nH]c(=O)c2C(F)F)N1CCN(c2ncc(C(F)(F)F)cn2)CC1 (single isomer, unassigned) [Compound 114]	> 1000 nM	> 1000 nM
N#Cc1ccc2c(N3CCOC(CC(=O)N4CCN(c5ncc(C(F)(F)F)cn5)CC4)C3)n[nH]c(=O)c2c1 (centres unmarked) [Compound 243]	100 to 1000 nM	
N#Cc1ccc2c(c1)N(c1cc(C(F)(F)F)c(=O)[nH]n1)CC(CC(=O)N1CCN(c3ncc(C(F)(F)F)cn3)CC1)O2 (single isomer, unassigned) [Compound 201]	100 to 1000 nM	
O=C(CC1CN(c2cc(C(F)(F)F)c(=O)[nH]n2)c2ccccc2O1)N1CCN(c2ccc(C3CC3)cn2)CC1 (single isomer, unassigned) [Compound 285]	< 100 nM	
O=C(c1cccc(Oc2n[nH]c(=O)c(C(F)(F)F)c2C2CC2)c1)N1CCN(c2ncc(C(F)(F)F)cn2)CC1 [Compound 173]	< 100 nM	
N#Cc1ccc2c(c1)N(c1cc(C(F)(F)F)c(=O)[nH]n1)CC(CC(=O)N1CCN(c3ncc(C(F)(F)F)cn3)CC1)O2 (centres unmarked) [Compound 136]	< 100 nM	
O=C(CC1CN(c2cc(C(F)(F)F)c(=O)[nH]n2)c2cc(C(F)F)ccc2O1)N1CCN(c2cnc(C(F)(F)F)cn2)CC1 (single isomer, unassigned) [Compound 146]	100 to 1000 nM	
COCc1ccc2c(c1)N(c1cc(C(F)(F)F)c(=O)[nH]n1)CC(CC(=O)N1CCN(c3ncc(C(F)(F)F)cn3)CC1)O2 (single isomer, unassigned) [Compound 267]	< 100 nM	
N#Cc1cnc(N2CCN(C(=O)c3cccc(Oc4n[nH]c(=O)c(C(F)(F)F)c4N4CC(C5CC5)C4)c3)CC2)nc1 [Compound 303]	< 100 nM	
O=C(CC1CN(c2n[nH]c(=O)c3ccc(N4CCCC4)cc23)CCO1)N1CCN(c2ncc(C(F)(F)F)cn2)CC1 (single isomer, unassigned) [Compound 258]	< 100 nM	
O=C(CC1CN(c2cc(C(F)(F)F)c(=O)[nH]n2)CCO1)N1CCN(c2ncc(C(F)(F)F)cn2)CC1 (single isomer, unassigned) [Compound 31]	< 100 nM	
O=C(CC1CN(c2n[nH]c(=O)c3cccnc23)CCO1)N1CCN(c2ncc(C(F)(F)F)cn2)CC1 (single isomer, unassigned) [Compound 104]	< 100 nM	
COCC(=O)Nc1ccc2c(c1)N(c1cc(C(F)(F)F)c(=O)[nH]n1)CC(CC(=O)N1CCN(c3ncc(C(F)(F)F)cn3)CC1)O2 (single isomer, unassigned) [Compound 283]	< 100 nM	
Cn1cc(-c2ccc3c(c2)N(c2cc(C(F)(F)F)c(=O)[nH]n2)CC(CC(=O)N2CCN(c4ncc(C(F)(F)F)cn4)CC2)O3)cn1 (single isomer, unassigned) [Compound 192]	< 100 nM	
N#Cc1ccc(N2CCN(C(=O)c3cccc(Oc4n[nH]c(=O)c(C(F)(F)F)c4N4CC5(CCC5)C4)c3)CC2)nc1 [Compound 161]	< 100 nM	
O=C(CC1CN(c2cc(C(F)(F)F)c(=O)[nH]n2)c2ccccc2O1)N1CCn2c(nnc2C(F)(F)F)C1 (single isomer, unassigned) [Compound 290]	> 1000 nM	
O=C(CO[C@H]1C[C@H](CC2CC2)Oc2c1n[nH]c(=O)c2C(F)(F)F)N1CCN(c2ncc(C(F)(F)F)cn2)CC1 (stereo in doubt) [Compound 184]	> 1000 nM	
N#Cc1ccc2c(c1)N(c1cc(C(F)(F)F)c(=O)[nH]n1)CC(CC(=O)N1CCN(c3ccc(C(F)(F)F)cn3)CC1)O2 (single isomer, unassigned) [Compound 154]	< 100 nM	
O=C(CC1CN(c2cc(C(F)(F)F)c(=O)[nH]n2)c2ccccc2O1)N1CCN(c2ncc(C(F)F)cn2)CC1 (single isomer, unassigned) [Compound 249]	100 to 1000 nM	
O=C(OC1CN(c2cc(C(F)(F)F)c(=O)[nH]n2)CCC1(F)F)N1CCN(c2ncc(C(F)(F)F)cn2)CC1 (single isomer, unassigned) [Compound 117]	> 1000 nM	
Cc1c(Oc2cncc(C(=O)N3CCN(c4ncc(C(F)(F)F)cn4)CC3)c2)n[nH]c(=O)c1C(F)(F)F [Compound 20]	< 100 nM	
C#Cc1ccc2c(=O)[nH]nc(N3CCOC(CC(=O)N4CCN(c5ncc(C(F)(F)F)cn5)CC4)C3)c2c1 (single isomer, unassigned) [Compound 195]	< 100 nM	

The remaining lines, values ahead:

IC50 (PARP7)	IC50 (NCI-H1373 cells)	Compound
< 100 nM	> 1000 nM	O=C(COC1CCOc2c1n[nH]c(=O)c2Cl)N1CCN(c2ncc(C(F)(F)F)cn2)CC1 (single isomer, unassigned) [Compound 53]
< 100 nM	100 to 1000 nM	Cc1c(N2CCOC(CC(=O)N3CCN(c4ncc(C(F)(F)F)cn4)CC3)C2)n[nH]c(=O)c1C(F)(F)F (single isomer, unassigned) [Compound 39]
< 100 nM	< 100 nM	O=C(CC1CN(c2cc(C(F)(F)F)c(=O)[nH]n2)c2cc(C(F)F)ccc2O1)N1CCN(c2cnc(C(F)(F)F)cn2)CC1 (single isomer, unassigned) [Compound 145]
< 100 nM	< 100 nM	O=C(CC[C@@H]1CCCN1c1cc(C(F)(F)F)c(=O)[nH]n1)N1CCN(c2ncc(C(F)(F)F)cn2)CC1 [Compound 86]
< 100 nM	< 100 nM	C#Cc1ccc2c(c1)N(c1cc(C(F)(F)F)c(=O)[nH]n1)CC(CC(=O)N1CCN(c3ncc(C(F)(F)F)cn3)CC1)O2 (centres unmarked) [Compound 149]
< 100 nM	> 1000 nM	Cc1c(Oc2ccc(Cl)c(C(=O)N3CCN(c4ncc(C(F)(F)F)cn4)CC3)c2)n[nH]c(=O)c1C(F)(F)F [Compound 26]
< 100 nM	< 100 nM	O=C(c1cc(Oc2n[nH]c(=O)c(C(F)(F)F)c2N2CC3(CCC3)C2)ccn1)N1CCN(c2cnc(C(F)(F)F)cn2)CC1 [Compound 272]
< 100 nM	100 to 1000 nM	COC1CC(Nc2c(Oc3cccc(C(=O)N4CCN(c5ncc(C(F)(F)F)cn5)CC4)c3)n[nH]c(=O)c2C(F)(F)F)C1 (centres unmarked) [Compound 168]
< 100 nM	100 to 1000 nM	O=C(CC1CN(c2n[nH]c(=O)c3ccccc23)CCO1)N1CCN(c2ncc(C(F)(F)F)cn2)CC1 (single isomer, unassigned) [Compound 92]
< 100 nM	> 1000 nM	Cc1c(N2C[C@H](CC(=O)N3CCN(c4ncc(C(F)(F)F)cn4)CC3)O[C@@H](C)C2)n[nH]c(=O)c1C(F)(F)F (single isomer, unassigned) [Compound 42]
< 100 nM	100 to 1000 nM	O=C(c1cncc(Oc2n[nH]c(=O)c(C(F)(F)F)c2N2CC(C3CC3)C2)c1)N1CCN(c2ncc(Cl)cn2)CC1 [Compound 280]
< 100 nM	100 to 1000 nM	O=C(CC1CN(c2cc(C(F)(F)F)c(=O)[nH]n2)c2cc(F)ccc2O1)N1CCN(c2ccc(C3CC3)cn2)CC1 (single isomer, unassigned) [Compound 300]
< 100 nM	100 to 1000 nM	Cc1c(N2C[C@@H](CC(=O)N3CCN(c4ncc(C(F)(F)F)cn4)CC3)O[C@H](C)C2)n[nH]c(=O)c1C(F)(F)F (single isomer, unassigned) [Compound 43]
< 100 nM	> 1000 nM	O=C(c1cccc(Oc2cc(C(F)(F)F)c(=O)[nH]n2)c1)N1CCN(c2ncc(C(F)(F)F)cn2)CC1 [Compound 16]
< 100 nM	< 100 nM	N#Cc1cnc(N2CCN(C(=O)c3cccc(Oc4n[nH]c(=O)c(C(F)(F)F)c4N4CC5(CCC5)C4)c3)CC2)nc1 [Compound 179]
< 100 nM	100 to 1000 nM	O=C(CC1CN(c2cc(C(F)(F)F)c(=O)[nH]n2)CCO1)N1CCN(c2ncc(C(F)(F)F)cn2)CC1 (single isomer, unassigned) [Compound 32]
< 100 nM	< 100 nM	CCOC1CN(c2c(Oc3ccnc(C(=O)N4CCN(c5ncc(C(F)(F)F)cn5)[C@H](C)C4)c3)n[nH]c(=O)c2C(F)(F)F)C1 [Compound 339]
< 100 nM		O=C(c1cncc(Oc2n[nH]c(=O)c(C(F)(F)F)c2N2CC3(CCC3)C2)c1)N1CCN(c2ncc(C(F)(F)F)cn2)CC1 [Compound 84]
< 100 nM		CN(C)C1CN(c2c(Oc3cccc(C(=O)N4CCN(c5ncc(C(F)(F)F)cn5)CC4)c3)n[nH]c(=O)c2C(F)(F)F)C1 [Compound 82]
